Assay results published in US7230139B2, “Diterpenoid compounds, compositions thereof and their use as anti-cancer or anti-fungal agents” (priority 2004, dated 2007).
pIC50: −log10 of the molar value. Read-outs that look alike come from different tables or passages of the source. One block for each compound: values may come before it.

What was measured:
[1] = assay type: in vivo, CB17 SCID/SCID female mice; conditions: day 34; i.p. 3.5 mg/kg once every 3 days for fifteen days
Description: C33A cells were transplanted subcutaneously into the flank of female CB17 SCID/SCID mice. Each mouse was inoculated with a suspension of 2×10^6 tumor cells per 100 μL on day zero. The following six treatment groups of ten mice each were used: (a) a negative control group treated with intravenous (i.v.) injection of vehicle, (b) a negative control group treated with intraperitoneal (i.p.) injection of vehicle, (c) a positive control group treated with i.p. injection of Cisplatin, (d) a group treated with i.v. injection of a Compound 50, (e) a group treated with i.p. injection of Compound 50, and (f) a group treated with subcutaneous (s.c.) injection of Compound 50.
Treatment started on day thirteen after C33A cells transplantation for Compound 50 treated groups and on day fourteen for Cisplatin treated group. Compound 50 was administered i.v., i.p., and s.c. once daily for five consecutive days at a dose of 10, 15 and 30 mg/kg, respectively. Compound 50 was prepared as a working solution of 1.5 mg/mL in a vehicle solution of 20% Cremaphor EL (Sigma, St. Louis, Mo., USA), 10% Ethanol and 5% Dextrose (Abbot Laboratories, QC, Canada). The negative control groups were treated with vehicle alone. The positive control group was treated once every 3 days for fifteen days at a dose of 3.5 mg/kg. Cisplatin was formulated in PBS on each day of the injection and was administered i.p.
The mice were weighed and the tumors measured on day 13 and every 2 to 3 days after treatment commenced. Observations continued for 36 days after initial tumor implantation. The changes in body weight and in the calculated tumor volume were plotted (FIGS. 4 and 5). Statistical analysis was performed using GraphPad Prism (GraphPad Software Inc., San Diego, Calif.). Two-way ANOVA was used to determine how the treatment affected tumor growth over time. Following the two-way ANOVA, post-tests were performed using the Benferroni method to determine the statistical difference between the mean tumor-size of the two groups being compared on every day that the tumors were measured. […]

[2] = system: H1299 and C33A cancer cells versus HMEC and MRC-5 normal cells; conditions: 72 h; 1.6 μM Compound 48, 10 μM etoposide, 100 nM staurosporine
Description: H1299 non-small cell lung carcinoma cells, C33A cervical carcinoma cells, Mrc-5 normal lung fibroblasts (American Type Culture Collection, Manassas, Va. USA) and HMEC normal mammary epithelial cells (Clonetics San Diego, Calif., USA) were cultured in RPMI 1640 media supplemented with 10% fetal calf serum (Sigma-Aldrich Inc., St. Louis, Mo. USA). The four cells lines were plated in 96-well microtiter plates (PerkinElmer Life Sciences Inc, Boston, Mass. USA) at a confluency that allowed them to reach confluence after 4 days of growth. One day after plating, the cells were treated either with 10 μM etoposide, 100 nM staurosporine or 1.6 μM of Compound 48. Stock solutions of each compound were prepared in dimethyl sulfoxide (Sigma-Aldrich Inc., St. Louis, Mo. USA), diluted in media then added to the cells. The total dimethyl sulfoxide on the cells was 1%. After 3 days of incubation, the ATP levels in the cells were quantified using the luminescent ViaLight detection system (Bio-Whittaker, Md., USA). The results were plotted relative to untreated control cells, which were set at 100.

[3] = Body weight of SW480 tumor-bearing mice; assay type: in vivo, CB17 SCID/SCID female mice; conditions: i.v. once daily for five days; 10 mg/kg (50, 50a, 50b), 50 mg/kg (74a)
Description: (§1) SW480 cells were transplanted subcutaneously into the flank of female CB 17 SCID/SCID mice. Each mouse was inoculated with a suspension of 1×10^6 tumor cells per 100 μL on day zero. The following five treatment groups of ten mice each were used: (a) a negative control group treated with intravenous (i.v.) injection of vehicle, (b) a group treated with i.v. injection of a Compound 50, (c) a group treated with i.v. injection of a Compound 50a, (d) a group treated with i.v. injection of Compound 50b, (e) a group treated with i.v. injection of Compound 74a.
(§2) Treatment started on day twelve after SW480 cells transplantation and Compounds 50, 50a, 50b and 74a were administered i.v. once daily for five consecutive days at a dose of 10, 10, 10 and 50 mg/kg, respectively. Compound 50, 50a and 50b were prepared as a working solution of 1.5 mg/mL in a vehicle solution of 20% Cremaphor EL (Sigma, St. Louis, Miss., USA), and 10% Ethanol. Compound 74a was prepared as a working solution of 5 mg/mL in a vehicle solution of 5% Dextrose (Abbot Laboratories, QC, Canada). The negative control groups were treated with vehicle solution of 20% Cremaphor EL and 10% Ethanol alone.
(§3) The mice were weighed and the tumors measured on day 12 and every 2 to 3 days after treatment commenced. Observations continued for 23 days after initial tumor implantation. The changes in body weight and in the calculated tumor volume were plotted (FIGS. 9 and 10). Statistical analysis was performed using GraphPad Prism (GraphPad Software Inc., San Diego, Calif.). Two-way ANOVA was used to determine how the treatment affected tumor growth over time. Following the two-way ANOVA, post-tests were performed using the Benferroni method to determine the statistical difference between the mean tumor-size of the two groups being compared on every day that the tumors were measured.

[4] = system: NHBE normal human bronchial epithelial cells; test: Cell viability, cellular ATP levels (Vialight HS); assay type: cell-based; conditions: Table 5, ATP levels 72 h post-treatment
Excerpt: (§4) The following cell lines were used: A549 human non-small cell lung carcinoma; C33A human cervical carcinoma; H1299 human non-small cell lung carcinoma; Hep-3B human hepatocellular carcinoma; MIA-Paca-2 human pancreatic carcinoma; PC-3 human prostatic adenocarcinoma (American Type Culture Collection, Manassas, Va., USA); HMEC normal human mammary epithelial cells; HUVEC normal human umbilical vein endothelial cells; and NHBE normal human bronchial epithelial cells (Cambrex Bio Science, Rockland, Me., USA). […] HMEC, HUVEC and NHBE cell lines were cultured in MEGM, EGM-2 and BEGM media, respectively (Cambrex Bio Science, Rockland, Me., USA). The cell lines were plated in 96-well microtitre plate at a density of 2–4×10^3 cells per well. After 16 hours, the cells were treated with various concentrations of Compound 50a or Compound 50b. Stock solutions of Compound 50a and Compound 50b, respectively, were prepared in dimethyl sulfoxide at a concentration of 5 mM. Serial dilutions were prepared in RPMI, 10% FBS and 2% DMSO and then added to the cells. The total DMSO in the cell cultures was 1%. […] The IC50s were determined using a best-fit sigmoidal dose response curve with variable slope.

[5] = system: HUVEC normal human umbilical vein endothelial cells; test: Cell viability, cellular ATP levels (Vialight HS); assay type: cell-based; conditions: Table 5, ATP levels 72 h post-treatment
Excerpt: as §4

[6] = system: A549 human non-small cell lung carcinoma; test: Cell viability, cellular ATP levels (Vialight HS); assay type: cell-based; conditions: Table 5, A549, NSCL-adrenocarinoma, tumor, ATP levels 72 h post-treatment
Excerpt: as §4

[7] = system: MIA-Paca-2 human pancreatic carcinoma; test: Cell viability, cellular ATP levels (Vialight HS); assay type: cell-based; conditions: Table 5, MIA-Paca-2, pancreas, tumor, ATP levels 72 h post-treatment
Excerpt: as §4

[8] = system: Hep-3B human hepatocellular carcinoma; test: Cell viability, cellular ATP levels (Vialight HS); assay type: cell-based; conditions: Hep3B, Table 5, liver, tumor, ATP levels 72 h post-treatment
Excerpt: as §4

[9] = system: PC-3 human prostatic adenocarcinoma; test: Cell viability, cellular ATP levels (Vialight HS); assay type: cell-based; conditions: Table 5, PC-3, prostate, tumor, ATP levels 72 h post-treatment
Excerpt: as §4

[10] = system: HMEC normal human mammary epithelial cells; test: Cell viability, cellular ATP levels (Vialight HS); assay type: cell-based; conditions: Table 5, breast epithelial, ATP levels 72 h post-treatment
Excerpt: as §4

[11] = system: SW480 human colon carcinoma cancer cells; test: SW480 colon carcinoma xenograft in SCID mice; assay type: in vivo, CB17 SCID/SCID female mice
Description: The resultant mice are a model for a human having colon carcinoma cancer.
The SW480 human colon carcinoma cancer cells were maintained in RPMI supplemented with 10% inactivated fetal bovine serum and 1% penicillin-streptomycin-L-Glutamine, under 5% CO2 at 37° C., and passaged twice a week. The cells were grown at a confluency lower than 70% and then collected with Trypsin (Bio-Whittaker, Md., USA). The cells were then centrifuged and washed twice using phosphate buffered saline solution (PBS) and resuspended in PBS at 1×10^6 cells per 100 μl. Viability was examined by staining with Trypan Blue and only flasks with cell viability of greater than 95% were used for in vivo studies.
as §1, §2, §3

[12] = system: H1299 human non-small cell lung carcinoma; test: Cell viability, cellular ATP levels (Vialight HS); assay type: cell-based
Excerpt: as §4
(§5) The selected tumor cell lines included C33A human cervical carcinoma and H1299 human non-small cell lung carcinoma (American Type Culture Collection, Manassas, Va., USA). The cell lines were cultured in RPMI 1640 media supplemented with 10% FBS (Hyclone, Logan, Vt., USA), 100 U/mL penicillin, 100 μg/mL streptomycin and 2 mM L-glutamine (Invitrogen, Carlsbad, Calif., USA). The cell lines were plated in 96-well microtitre plate at a density of 2–4×10^3 cells per well. After 16 hours, the cells were treated with various concentrations of compound 66, 67, 68, 69 and 70, respectively. Stock solutions of compounds 66, 67, 68, 69 and 70 were prepared in dimethyl sulfoxide at a concentration of 5 mM. Serial dilutions were prepared in RPMI, 10% FBS and 2% DMSO and then added to the cells. The total DMSO on the cells was 1%. […] The IC50s were determined using a best-fit sigmoidal dose response curve with variable slope.

[13] = system: C33A human cervical carcinoma; test: Cell viability, cellular ATP levels (Vialight HS); assay type: cell-based; conditions: C-33-A
Excerpt: as §4, §5

[14] = NCI-H1299, Table 6, ATP levels 72 h post-treatment vs untreated cells, read-out: IC50 H1299
[15] = Table 6, ATP levels 72 h post-treatment vs untreated cells, read-out: IC50 C33A
[16] = NCI-H1299, Table 7, cellular ATP levels, read-out: IC50 H1299
[17] = Table 7, cellular ATP levels, read-out: IC50 C33A
[18] = NCI-H1299, Table 8, cellular ATP levels, read-out: IC50 H1299
[19] = Table 8, cellular ATP levels, read-out: IC50 C33A

SMILES: N.N.[Cl][Pt][Cl] [Cisplatin, reference compound]
Weight loss [1]: 19%

SMILES: COc1cc2c(cc1C)C(=O)C(O)=C1C(C)(C)C(=O)C=CC12C (stereo not drawn) [Compound 48, 10-Hydroxy-6-methoxy-1,1,4a,7-tetramethyl-1H,4aH-phenanthrene-2,9-dione]
Selective cytotoxicity towards cancer cells [2]: selectively cytotoxic towards cancer cells

SMILES: COc1ccc2c(c1)[C@@]1(C)C=CC(=O)C(C)(C)C1=C(O)C2=O [Compound 50a]
Change in body weight [3]: non-significant change in body weight
pIC50 [4]: 5.92
pIC50 [5]: 5.77
pIC50 [6]: 6.20
pIC50 [7]: 6.18
pIC50 [8]: 6.01
pIC50 [9]: 6.43
pIC50 [10]: 5.64
Tumor growth compared to vehicle ([11]; i.v. 10 mg/kg once a day for five days): significant reduction (p<0.001)
pIC50 ([12]; NCI-H1299, Table 5, H1299, NSCL-LC carcinoma, tumor, ATP levels 72 h post-treatment vs untreated cells, read-out: IC50): 6.26
pIC50 ([13]; Table 5, C33A, cervix, tumor, ATP levels 72 h post-treatment, read-out: IC50): 6.30

SMILES: CCOP(=O)(OCC)OC1=C2C(C)(C)C(=O)C=CC2(C)c2cc(OC)ccc2C1=O (stereo not drawn) [Compound 72]
pIC50 ([12]; NCI-H1299, read-out: IC50 H1299): 6.00
pIC50 ([13]; read-out: IC50 C33A): 6.67

SMILES: COc1ccc2c(c1)C1(C)C=CC(=O)C(C)(C)C1=C(OP(=O)(OCc1ccccc1)OCc1ccccc1)C2=O (stereo not drawn) [Compound 73]
pIC50 [12, 16]: 5.81
pIC50 [13, 17]: 6.18

SMILES: COc1ccc2c(c1)[C@@]1(C)C=CC(=O)C(C)(C)C1=C(OP(=O)(O)O)C2=O [Compound 74a]
Change in body weight [3]: non-significant change in body weight
Tumor growth compared to vehicle ([11]; i.v. 50 mg/kg once daily for five days): significantly reduction (p<0.001)

SMILES: CC1(C)C(=O)C=CC2(C)C1=C(O)C(=O)c1ccc(O)cc12 (stereo not drawn) [Compound 76]
pIC50 [12, 16]: 6.52
pIC50 [13, 17]: 6.70

SMILES: COc1cc([C@@H]2c3cc4c(cc3[C@@H](O[C@@H]3O[C@@H]5CO[C@@H](C)O[C@H]5[C@H](O)[C@H]3O)[C@H]3COC(=O)[C@H]23)OCO4)cc(OC)c1O [etoposide]
Selective cytotoxicity towards cancer cells [2]: selectively cytotoxic towards cancer cells

Continued, values first:

pIC50 [12, 14]: 5.84
pIC50 [13, 15]: 5.81
SMILES: CCC1(C)C(=O)C=CC2(C)C1=C(O)C(=O)c1ccc(OC)cc12 (stereo not drawn) [Compound 66]

pIC50 [12, 14]: 6.02
pIC50 [13, 15]: 5.92
SMILES: C=CCC1(C)C(=O)C=CC2(C)C1=C(O)C(=O)c1ccc(OC)cc12 (stereo not drawn) [Compound 67]

pIC50 [12, 14]: 5.68
pIC50 [13, 15]: 5.60
SMILES: COc1ccc2c(c1)C1(C)C=CC(=O)C(C)(Cc3ccccc3)C1=C(O)C2=O (stereo not drawn) [Compound 68]

pIC50 [12, 14]: 5.87
pIC50 [13, 15]: 6.06
SMILES: COC(=O)C1=CC2(C)C(=C(O)C(=O)c3ccc(OC)cc32)C(C)(C)C1=O (stereo not drawn) [Compound 69]

pIC50 [12, 14]: 4.77
pIC50 [13, 15]: 4.80
SMILES: COc1ccc2c(c1)C1(C)C=CC(=O)C(C)(C)C1C(=O)C2=O (stereo not drawn) [Compound 70]

pIC50 [12, 18]: 6.68
pIC50 [13, 19]: 6.67
SMILES: COc1ccc2c(c1)C1(C)C(=C(O)C2=O)C(C)(C)C(=O)CC1SCC(NC(C)=O)C(=O)O (stereo not drawn) [Compound 80]

pIC50 [12, 18]: 6.81
pIC50 [13, 19]: 6.73
SMILES: COc1ccc2c(c1)C1(C)C(=C(O)C2=O)C(C)(C)C(=O)CC1SCC(NC(=O)CCC(N)C(=O)O)C(=O)NCC(=O)O (stereo not drawn) [Compound 81]
